Measured values: PubChem BioAssay AID330 (DTP/NCI, 2004)
Values joined by “and” are separate entries in the source; they are usually repeats but may differ in a detail not shown here. Equal values may be shown once. Toxic doses and inconclusive results are not listed.

Tested on: P388 leukemia ip, CD2F1 mice, survival T/C
Experiment: NCI In Vivo Anticancer Drug Screen. Data for tumor model P388 Leukemia (intraperitoneal) in CD2F1 (CDF1) mice
Conditions: endpoint: median survival time, higher = longer survival
Method in brief: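 Mice carrying the transplanted tumor received test compound or vehicle. Survival was recorded in each group, and the value is the treated-group measurement divided by that of the vehicle-treated control group.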

[1] = dose: 60.0 mg/kg/injection, schedule: Q01DX005 (ip), vehicle: saline with Tween-80
[2] = dose: 120.0 mg/kg/injection, schedule: Q01DX005 (ip), vehicle: saline with Tween-80
[3] = dose: 240.0 mg/kg/injection, schedule: Q01DX005 (ip), vehicle: saline with Tween-80
[4] = dose: 100.0 mg/kg/injection, schedule: Q01DX009 (ip), vehicle: Klucel (hydroxypropylcellulose) (HPC)
[5] = dose: 50.0 mg/kg/injection, schedule: Q01DX005 (ip), vehicle: saline with Tween-80
[6] = dose: 100.0 mg/kg/injection, schedule: Q01DX005 (ip), vehicle: saline with Tween-80

For `Cc1nc(C)c2c(C)[nH]c(-c3ccccc3)c2n1`, the T/C (dose: 25.0 mg/kg/injection, schedule: Q04DX002 (ip), vehicle: Klucel (hydroxypropylcellulose) (HPC)) was 102 % of control, the T/C (dose: 50.0 mg/kg/injection, schedule: Q04DX002 (ip), vehicle: Klucel (hydroxypropylcellulose) (HPC)) was 101 % of control and the T/C (dose: 100.0 mg/kg/injection, schedule: Q04DX002 (ip), vehicle: Klucel (hydroxypropylcellulose) (HPC)) was 108 % of control. The T/C (dose: 200.0 mg/kg/injection, schedule: Q04DX002 (ip), vehicle: Klucel (hydroxypropylcellulose) (HPC)) was 104 % of control.
With `Nc1cc(=O)n2cn[nH]c2n1` the T/C (dose: 100.0 mg/kg/injection, schedule: Q04DX002 (ip), vehicle: saline with Tween-80) was 100 % of control, the T/C (dose: 200.0 mg/kg/injection, schedule: Q04DX002 (ip), vehicle: saline with Tween-80) was 103 % of control and the T/C (dose: 400.0 mg/kg/injection, schedule: Q04DX002 (ip), vehicle: saline with Tween-80) was 103 % of control.
In the case of `CN1CCC(/C=C/c2cccc3ccccc23)CN1` (stereo unspecified) (tested in a mixture with another compound), the T/C (dose: 50.0 mg/kg/injection, schedule: Q01DX009 (ip), vehicle: saline) was 108 % of control and the T/C (dose: 100.0 mg/kg/injection, schedule: Q01DX009 (ip), vehicle: saline) was 99 % of control.
In the case of `CCCCN(CCNc1cc(OC)cc2cccnc12)C1CCCC1`, the T/C (dose: 50.0 mg/kg/injection, schedule: Q01DX005 (ip), vehicle: saline) was 104 % of control and the T/C (dose: 100.0 mg/kg/injection, schedule: Q01DX005 (ip), vehicle: saline) was 88 % of control.
For `C[N+]1(C)CCC(Cl)CC1`, the T/C (dose: 3.75 mg/kg/injection, schedule: Q01DX005 (ip), vehicle: saline) was 104 % of control, the T/C (dose: 7.5 mg/kg/injection, schedule: Q01DX005 (ip), vehicle: saline) was 103 % of control and the T/C (dose: 15.0 mg/kg/injection, schedule: Q01DX005 (ip), vehicle: saline) was 99 % of control. The T/C (dose: 30.0 mg/kg/injection, schedule: Q01DX005 (ip), vehicle: saline) was 100 % of control and 102 % of control.
With `C[C@H](N)[C@@H](O)/C=C/c1ccccc1` the T/C (dose: 10.0 mg/kg/injection, schedule: Q01DX005 (ip), vehicle: saline) was 98 % of control, the T/C (dose: 20.0 mg/kg/injection, schedule: Q01DX005 (ip), vehicle: saline) was 100 % of control and the T/C (dose: 40.0 mg/kg/injection, schedule: Q01DX005 (ip), vehicle: saline) was 100 % of control.
`COc1cc2cc3c4cc5c(cc4cc[n+]3c(C)c2cc1OC)OCO5` (tested in a mixture with another compound) was tested, and the T/C (dose: 15.0 mg/kg/injection, schedule: Q04DX003 (ip), vehicle: saline) was 153 % of control.
With `CCCc1cc(=O)[nH]c(SCC(=O)O)n1` the T/C [1] was 100 % of control, the T/C [2] was 101 % of control and the T/C [3] was 99 % of control.
In the case of `O=C1NC(=O)C(c2ccccc2)(c2ccccc2)C2CC3c4[nH]c5ccccc5c4CCN3CC12` (stereo unspecified), the T/C (dose: 25.0 mg/kg/injection, schedule: Q01DX001 (ip), vehicle: saline) was 117 % of control, the T/C (dose: 50.0 mg/kg/injection, schedule: Q01DX001 (ip), vehicle: saline) was 88 % of control and the T/C (dose: 100.0 mg/kg/injection, schedule: Q01DX001 (ip), vehicle: saline) was 114 % of control and 90 % of control.
For `COc1cccc(CCCC(=O)O)c1`, the T/C [4] was 100 % of control, the T/C (dose: 200.0 mg/kg/injection, schedule: Q01DX009 (ip), vehicle: Klucel (hydroxypropylcellulose) (HPC)) was 100 % of control and the T/C (dose: 400.0 mg/kg/injection, schedule: Q01DX009 (ip), vehicle: Klucel (hydroxypropylcellulose) (HPC)) was 104 % of control.
`NC(=O)CCNC(=O)CCCNC(=O)CCNC(=O)OCc1ccccc1` was tested, and the T/C (dose: 12.5 mg/kg/injection, schedule: Q01DX009 (ip), vehicle: distilled water + Tween-80) was 96 % of control, the T/C (dose: 25.0 mg/kg/injection, schedule: Q01DX009 (ip), vehicle: distilled water + Tween-80) was 110 % of control and the T/C (dose: 50.0 mg/kg/injection, schedule: Q01DX009 (ip), vehicle: distilled water + Tween-80) was 97 % of control. For the same compound, the T/C (dose: 100.0 mg/kg/injection, schedule: Q01DX009 (ip), vehicle: distilled water + Tween-80) was 105 % of control and the T/C (dose: 200.0 mg/kg/injection, schedule: Q01DX009 (ip), vehicle: distilled water + Tween-80) was 96 % of control.
In the case of `COc1ccc2c(c1)C(Cc1ccc(Oc3ccc(CC4c5cc(OC)ccc5CC[N+]4(C)C)cc3)cc1)[N+](C)(C)CC2` (stereo unspecified), the T/C (dose: 1.56 mg/kg/injection, schedule: Q04DX003 (ip), vehicle: water) was 107 % of control.
For `Cc1nn(C(=O)c2cccnc2)c(-c2ccccc2)c1N=Nc1ccc(S(=O)(=O)Nc2ncccn2)cc1`, the T/C [5] was 89 % of control and the T/C [6] was 88 % of control.
`COC(=O)N1C=CC2ON=C(S(=O)(=O)c3ccccc3)C2C1` (stereo unspecified) was tested, and the T/C [1] was 108 % of control, the T/C [2] was 95 % of control and the T/C [3] was 98 % of control.
In the case of `O=C(NNC(=O)c1ccncc1)Nc1cccc(Cl)c1`, the T/C (dose: 50.0 mg/kg/injection, schedule: Q01DX009 (ip), vehicle: Klucel (hydroxypropylcellulose) (HPC)) was 95 % of control and the T/C [4] was 96 % of control.
For `Cn1c2cc(O)cc(O)c2c(=O)c2cccc([N+](=O)[O-])c21`, the T/C (dose: 100.0 mg/kg/injection, schedule: Q01DX001 (ip), vehicle: saline with Tween-80) was 104 % of control, the T/C (dose: 200.0 mg/kg/injection, schedule: Q01DX001 (ip), vehicle: saline with Tween-80) was 103 % of control and the T/C (dose: 400.0 mg/kg/injection, schedule: Q01DX001 (ip), vehicle: saline with Tween-80) was 101 % of control.
In the case of `COC(=O)C(Cc1c[nH]c2ccccc12)N1CN(C)c2ccccc2C1=O` (stereo unspecified), the T/C (dose: 60.0 mg/kg/injection, schedule: Q01DX005 (ip), vehicle: Klucel (hydroxypropylcellulose) (HPC)) was 98 % of control, the T/C (dose: 120.0 mg/kg/injection, schedule: Q01DX005 (ip), vehicle: Klucel (hydroxypropylcellulose) (HPC)) was 98 % of control and the T/C (dose: 240.0 mg/kg/injection, schedule: Q01DX005 (ip), vehicle: Klucel (hydroxypropylcellulose) (HPC)) was 90 % of control.
`C(=C\c1cc2cc(C3=NCCN3)ccc2[nH]1)/c1ccc(C2=NCCN2)cc1` was tested, and the T/C (dose: 6.25 mg/kg/injection, schedule: Q04DX003 (ip), vehicle: saline) was 107 % of control and 108 % of control and the T/C (dose: 12.5 mg/kg/injection, schedule: Q04DX003 (ip), vehicle: saline) was 117 % of control and 119 % of control.
`Nc1ccc2c(C(F)(F)F)cc(=O)oc2c1` was tested, and the T/C [5] was 106 % of control, the T/C [6] was 99 % of control and the T/C (dose: 200.0 mg/kg/injection, schedule: Q01DX005 (ip), vehicle: saline with Tween-80) was 94 % of control.
`CCN1CC2(C)CCC(OC)C34C1[C@H](C(=O)[C@@H]23)[C@]1(O)CC[C@H]2C[C@H]4[C@H]1C(=O)O2` (stereo partly specified) was tested, and the T/C (dose: 1.0 mg/kg/injection, schedule: Q01DX009 (ip), vehicle: Klucel (hydroxypropylcellulose) (HPC)) was 95 % of control, the T/C (dose: 2.0 mg/kg/injection, schedule: Q01DX009 (ip), vehicle: Klucel (hydroxypropylcellulose) (HPC)) was 96 % of control and the T/C (dose: 4.0 mg/kg/injection, schedule: Q01DX009 (ip), vehicle: Klucel (hydroxypropylcellulose) (HPC)) was 98 % of control.
`[Mn+2].[Mn+2].c1ccc2c(c1)-c1nc-2nc2[n-]c(nc3nc(nc4[n-]c(n1)c1ccccc41)-c1ccccc1-3)c1cc3c4nc5nc(nc6[n-]c(nc7nc(nc([n-]4)c3cc21)-c1ccccc1-7)c1ccccc61)-c1ccccc1-5` was tested, and the T/C [1] was 96 % of control, the T/C [2] was 99 % of control and the T/C [3] was 106 % of control.
For `CCCCCCCCOC(=O)c1ccc(O)cc1`, the T/C (dose: 12.5 mg/kg/injection, schedule: Q01DX009 (ip), vehicle: saline with Tween-80) was 99 % of control, the T/C (dose: 25.0 mg/kg/injection, schedule: Q01DX009 (ip), vehicle: saline with Tween-80) was 100 % of control and the T/C (dose: 50.0 mg/kg/injection, schedule: Q01DX009 (ip), vehicle: saline with Tween-80) was 99 % of control and 96 % of control. For the same compound, the T/C (dose: 100.0 mg/kg/injection, schedule: Q01DX009 (ip), vehicle: saline with Tween-80) was 92 % of control.
In the case of `O=C1CC[C@@H](NC(=O)Cc2ccccc2)C(=O)N1`, the T/C (dose: 7.5 mg/kg/injection, schedule: Q01DX005 (ip), vehicle: saline with Tween-80) was 103 % of control, the T/C (dose: 15.0 mg/kg/injection, schedule: Q01DX005 (ip), vehicle: saline with Tween-80) was 97 % of control and the T/C (dose: 30.0 mg/kg/injection, schedule: Q01DX005 (ip), vehicle: saline with Tween-80) was 98 % of control and 101 % of control. For the same compound, the T/C (dose: 31.25 mg/kg/injection, schedule: Q01DX005 (ip), vehicle: saline with Tween-80) was 102 % of control, the T/C [1] was 94 % of control and 96 % of control and the T/C (dose: 62.5 mg/kg/injection, schedule: Q01DX005 (ip), vehicle: saline with Tween-80) was 101 % of control. For the same compound, the T/C [2] was 88 % of control, the T/C (dose: 125.0 mg/kg/injection, schedule: Q01DX005 (ip), vehicle: saline with Tween-80) was 99 % of control and 93 % of control and the T/C (dose: 250.0 mg/kg/injection, schedule: Q01DX005 (ip), vehicle: saline with Tween-80) was 90 % of control. For the same compound, the T/C (dose: 500.0 mg/kg/injection, schedule: Q01DX005 (ip), vehicle: saline with Tween-80) was 89 % of control.
With `O=S(=O)(OCCCl)c1c(Cl)c(Cl)c(Cl)c(Cl)c1Cl` the T/C (dose: 12.5 mg/kg/injection, schedule: Q01DX005 (ip), vehicle: saline with Tween-80) was 95 % of control, the T/C (dose: 25.0 mg/kg/injection, schedule: Q01DX005 (ip), vehicle: saline with Tween-80) was 92 % of control and the T/C [5] was 92 % of control and 93 % of control. The T/C [6] was 96 % of control.
